Calls of active or inactive are those of the source. The rule behind the calls is not given here.
Tests used:
[1] = target: T1, Dual specificity calcium/calmodulin-dependent 3',5'-cyclic nucleotide phosphodiesterase 1C (Homo sapiens, UniProt Q14123); experiment: Inhibition of PDE1C (147 to 531 residues) (unknown origin) expressed in Escherichia coli BL21 at 1000 nM [3H]-cGMP as substrate measured for 15 mins by liquid scintillation counter method relative to control
Rattus norvegicus [2] = experiment: Antifibrotic activity in bleomycin-induced Sprague-Dawley rat lung fibrosis model assessed as decrease in collagen I level at 150 mg/kg, po administered daily for 28 days by Western blot analysis; assay type: functional, organism-based; details: time 28.0 day
Rattus norvegicus [3] = experiment: Antifibrotic activity in bleomycin-induced Sprague-Dawley rat lung fibrosis model assessed as decrease in alpha-smooth muscle actin level at 150 mg/kg, po administered daily for 28 days by Western blot analysis; assay type: functional, organism-based; details: time 28.0 day
Rattus norvegicus [4] = experiment: Antifibrotic activity in bleomycin-induced Sprague-Dawley rat lung fibrosis model assessed as decrease in fibronectin level at 150 mg/kg, po administered daily for 28 days by Western blot analysis; assay type: functional, organism-based; details: time 28.0 day
[5] = target: T1, Dual specificity calcium/calmodulin-dependent 3',5'-cyclic nucleotide phosphodiesterase 1C; experiment: Inhibition of PDE1C (147 to 531 residues) (unknown origin) expressed in Escherichia coli BL21 using [3H]-cGMP as substrate measured for 15 mins by liquid scintillation counter method

T1 sequence (Q14123 whole entry, the tested form may be a part): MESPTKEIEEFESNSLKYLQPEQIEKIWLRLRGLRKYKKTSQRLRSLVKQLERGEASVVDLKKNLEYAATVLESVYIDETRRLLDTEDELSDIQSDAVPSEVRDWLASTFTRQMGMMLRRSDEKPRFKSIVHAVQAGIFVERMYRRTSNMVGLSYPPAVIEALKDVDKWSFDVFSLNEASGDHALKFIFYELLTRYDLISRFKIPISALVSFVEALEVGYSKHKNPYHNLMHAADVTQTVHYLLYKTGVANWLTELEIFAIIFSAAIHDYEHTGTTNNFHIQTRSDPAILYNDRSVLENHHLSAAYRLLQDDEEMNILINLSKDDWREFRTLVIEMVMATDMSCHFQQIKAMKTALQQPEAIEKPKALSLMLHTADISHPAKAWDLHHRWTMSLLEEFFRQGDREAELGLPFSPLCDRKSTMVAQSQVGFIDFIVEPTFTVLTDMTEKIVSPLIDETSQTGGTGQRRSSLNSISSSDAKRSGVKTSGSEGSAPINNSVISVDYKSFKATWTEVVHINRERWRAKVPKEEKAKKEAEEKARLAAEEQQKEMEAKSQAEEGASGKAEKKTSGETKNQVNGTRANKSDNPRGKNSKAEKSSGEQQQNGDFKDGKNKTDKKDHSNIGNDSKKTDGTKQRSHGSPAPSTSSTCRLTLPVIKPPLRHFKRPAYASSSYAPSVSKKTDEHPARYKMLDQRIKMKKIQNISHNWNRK

SMILES	inhibition [1]	IC50 [5]	also measured
COC(=O)C1=C(C)NC(C)=C(C(=O)OC)C1c1ccc(OC)c(OC)c1	43%		
COC(=O)C1=C(C)NC(C)=C(C(=O)OC)C1c1ccc(F)c(F)c1	42%		
Cc1ccc(=O)n(-c2ccccc2)c1			Activity (Rattus norvegicus [2]): Active; Activity (Rattus norvegicus [3]): Active; Activity (Rattus norvegicus [4]): Active
COC(=O)C1=C(C)NC(C)=C(C(=O)OC)C1c1ccccc1[N+](=O)[O-] [NIFEDIPINE]		> 10000 nM	
CCOC(=O)C1=C(C)NC(C)=C(C(=O)OC)C1c1cccc([N+](=O)[O-])c1 (configuration not stated) [NITRENDIPINE]		1850 nM	

— ChEMBL document CHEMBL5154941, “Structural Modifications of Nimodipine Lead to Novel PDE1 Inhibitors with Anti-pulmonary Fibrosis Effects” (J Med Chem, 2022)
